Source: article PMC3914206

The compounds below were run against T1, panel of 442 kinases (Homo sapiens, UniProt P29323). Conditions: Compound Concentration 10 µM.
T1 construct: purchased KINOMEscan
T1 sequence (P29323 19-1055): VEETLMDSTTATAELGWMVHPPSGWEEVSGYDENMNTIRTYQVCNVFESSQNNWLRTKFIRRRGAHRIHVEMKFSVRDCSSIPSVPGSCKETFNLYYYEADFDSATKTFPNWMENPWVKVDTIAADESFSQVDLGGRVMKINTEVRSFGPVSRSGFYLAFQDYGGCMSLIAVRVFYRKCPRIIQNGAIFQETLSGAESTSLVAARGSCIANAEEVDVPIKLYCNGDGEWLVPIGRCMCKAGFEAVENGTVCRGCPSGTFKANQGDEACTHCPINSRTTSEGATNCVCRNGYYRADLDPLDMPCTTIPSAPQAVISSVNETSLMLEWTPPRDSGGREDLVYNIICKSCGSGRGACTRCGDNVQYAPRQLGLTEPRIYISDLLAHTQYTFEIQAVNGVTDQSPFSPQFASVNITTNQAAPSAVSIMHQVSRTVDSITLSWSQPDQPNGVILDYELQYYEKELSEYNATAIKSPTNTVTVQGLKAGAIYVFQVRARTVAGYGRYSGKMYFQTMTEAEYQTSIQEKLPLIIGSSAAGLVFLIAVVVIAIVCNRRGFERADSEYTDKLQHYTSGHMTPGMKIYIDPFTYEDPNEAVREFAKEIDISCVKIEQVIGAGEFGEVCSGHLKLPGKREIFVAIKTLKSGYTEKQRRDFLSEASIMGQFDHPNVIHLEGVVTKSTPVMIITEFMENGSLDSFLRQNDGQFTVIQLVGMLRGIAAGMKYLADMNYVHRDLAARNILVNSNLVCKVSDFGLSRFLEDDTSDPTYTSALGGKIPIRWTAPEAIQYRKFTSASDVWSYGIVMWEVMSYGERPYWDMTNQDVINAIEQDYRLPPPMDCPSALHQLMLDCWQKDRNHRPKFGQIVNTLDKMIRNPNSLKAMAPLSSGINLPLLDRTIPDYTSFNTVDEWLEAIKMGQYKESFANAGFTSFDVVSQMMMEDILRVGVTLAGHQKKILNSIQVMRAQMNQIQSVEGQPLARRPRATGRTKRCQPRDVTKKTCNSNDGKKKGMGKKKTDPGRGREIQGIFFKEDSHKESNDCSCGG
Type: binding
Excerpt: We assessed the selectivity of members of this scaffold using the KINOMEscan methodology across a near comprehensive panel of 442 kinases [[18,27]].

| SMILES | KINOMEscan: EPHB2 |
| --- | --- |
| COc1cc(C(=O)N2CCC(N3CCN(C)CC3)CC2)ccc1Nc1ncc2c(n1)N(C)c1ccccc1C(=O)N2C [15 (LRRK2-IN-1)] | 100 |
| CCOc1cc(C(=O)N2CCC(N3CCN(C)CC3)CC2)ccc1Nc1ncc2c(n1)N(C1CCCC1)c1ccccc1C(=O)N2C [Compound 26] | 100 |
| COc1cc(C(=O)N2CCC(N3CCN(C)CC3)CC2)ccc1Nc1ncc2c(n1)N(C1CCCC1)c1ccccc1C(=O)N2C [Compound 25, 11-cyclopentyl-2-((2-methoxy-4-(4-(4-methylpiperazin-1-yl)piperidine-1-carbonyl)phenyl)amino)-5-methyl-5H-benzo[e]pyrimido[5,4-b][1,4]diazepin-6(11H)-one] | 86 |
